Results from US20110130386A1, “DNA-PK INHIBITORS” (priority 2008, published 2011).

What follows are compounds tested against Mammalian DNA-PK (Homo sapiens, UniProt P78527) (assay: DNA-PK inhibition assay (ELISA of p53 Ser15 phosphorylation of GST-p53N66)). Settings: DNA-PK from HeLa nuclear extract; mean value; read-out: mean IC50.
Type: biochemical, Mammalian (isolated from HeLa cell nuclear extract)
Procedure: In order to assess the inhibitory action of the compounds against DNA-PK in vitro, the following assay was used to determine IC50 values.
To the assay mix, varying concentrations of inhibitor (in DMSO at a final concentration of 1%) were added. After 10 minutes of incubation, ATP was added to give a final concentration of […] along with a 30 mer double stranded DNA oligonucleotide (final concentraion of 0.5 ng/ml) to initiate the reaction. After 1 hour with shaking, 150 μl of phosphate buffered saline (PBS) was added to the reaction and 5 μl then transferred to a 96 well opaque white plate containing 45 μl of PBS per well where the GSTp53N66 substrate was allowed to bind to the wells for 1 hour. To detect the phosphorylation event on the serine 15 residue of p53 elicited by DNA-PK a p53 phosphoserine-15 antibody (Cell Signaling Technology) was used in a basic ELISA procedure. An anti-rabbit HRP conjugated secondary antibody (Pierce) was then employed in the ELISA before the addition of chemiluminescence reagent. (NEN Renaissance) to detect the signal as measured by chemiluminescent counting via a TopCount NXT (Packard).
The enzyme activity for each compound is then calculated using the following equation: […]
The results are discussed below as IC50 values (the concentration at which 50% of the enzyme activity is inhibited). These are determined over a range of different concentrations, normally from 10 μM down to 0.001 μM. Such IC50 values are used as comparative values to identify increased compound potencies.

SMILES | IC50 [µM]
O=c1cc(N2CCOCC2)oc2c(-c3ccc(CNCC4CCCO4)c4c3sc3ccccc34)cccc12 (stereo not drawn) [4a] | 0.0312
CC(C)N1CCN(Cc2ccc(-c3cccc4c(=O)cc(N5CCOCC5)oc34)c3sc4ccccc4c23)CC1 [4aa] | 0.00175
O=c1cc(N2CCOCC2)oc2c(-c3ccc(CN4CCN(CCO)CC4)c4c3sc3ccccc34)cccc12 [4ab] | 0.00139
CN(CC(=O)O)Cc1ccc(-c2cccc3c(=O)cc(N4CCOCC4)oc23)c2sc3ccccc3c12 [4ac] | 0.238
O=c1cc(N2CCOCC2)oc2c(-c3ccc(CN4CCCN(CCO)CC4)c4c3sc3ccccc34)cccc12 [4ad] | 0.00386
CN(C)C1CCN(Cc2ccc(-c3cccc4c(=O)cc(N5CCOCC5)oc34)c3sc4ccccc4c23)CC1 [4ae] | 0.177
COC1CCCN(Cc2ccc(-c3cccc4c(=O)cc(N5CCOCC5)oc34)c3sc4ccccc4c23)C1 (stereo not drawn) [4af] | 0.232
O=C(C1CC1)N1CCN(Cc2ccc(-c3cccc4c(=O)cc(N5CCOCC5)oc34)c3sc4ccccc4c23)CC1 [4ag] | 0.251
CN(C)C1CCN(Cc2ccc(-c3cccc4c(=O)cc(N5CCOCC5)oc34)c3sc4ccccc4c23)C1 (stereo not drawn) [4ah] | 0.00121
O=c1cc(N2CCOCC2)oc2c(-c3ccc(CN4CCOCC4)c4c3sc3ccccc34)cccc12 [4ai] | 0.102
C[C@H]1COCCN1Cc1ccc(-c2cccc3c(=O)cc(N4CCOCC4)oc23)c2sc3ccccc3c12 [4aj] | 0.406
C[C@@H]1COCCN1Cc1ccc(-c2cccc3c(=O)cc(N4CCOCC4)oc23)c2sc3ccccc3c12 [4ak] | 0.912
O=c1cc(N2CCOCC2)oc2c(-c3ccc(CN4CCOC(CO)C4)c4c3sc3ccccc34)cccc12 (stereo not drawn) [4al] | 0.0725
COC1CCN(Cc2ccc(-c3cccc4c(=O)cc(N5CCOCC5)oc34)c3sc4ccccc4c23)CC1 [4am] | 0.415
CC1CC(C)CN(Cc2ccc(-c3cccc4c(=O)cc(N5CCOCC5)oc34)c3sc4ccccc4c23)C1 (stereo not drawn) [4an] | 1.52
O=c1cc(N2CCOCC2)oc2c(-c3ccc(CN4CCC(C(F)(F)F)CC4)c4c3sc3ccccc34)cccc12 [4ao] | 5.43
O=c1cc(N2CCOCC2)oc2c(-c3ccc(CN4CCCC(C(F)(F)F)C4)c4c3sc3ccccc34)cccc12 (stereo not drawn) [4ap] | 2.14
CCN1CCN(Cc2ccc(-c3cccc4c(=O)cc(N5CCOCC5)oc34)c3sc4ccccc4c23)CC1 [4aq] | 0.00559
N#CCNCc1ccc(-c2cccc3c(=O)cc(N4CCOCC4)oc23)c2sc3ccccc3c12 [4ar] | 0.0297
O=c1cc(N2CCOCC2)oc2c(-c3ccc(CN4CCCO4)c4c3sc3ccccc34)cccc12 [4as] | 0.0689
COCC1CCCN1Cc1ccc(-c2cccc3c(=O)cc(N4CCOCC4)oc23)c2sc3ccccc3c12 (stereo not drawn) [4at] | 0.884
CN(C)C1CCCN(Cc2ccc(-c3cccc4c(=O)cc(N5CCOCC5)oc34)c3sc4ccccc4c23)C1 (stereo not drawn) [4au] | 0.0198
CN1CCCC1CCNCc1ccc(-c2cccc3c(=O)cc(N4CCOCC4)oc23)c2sc3ccccc3c12 (stereo not drawn) [4av] | 0.0486
O=c1cc(N2CCOCC2)oc2c(-c3ccc(CNCCc4ccccn4)c4c3sc3ccccc34)cccc12 [4aw] | 0.0696

SMILES | IC50 [µM]
O=c1cc(N2CCOCC2)oc2c(-c3ccc(CNCCCn4ccnc4)c4c3sc3ccccc34)cccc12 [4ax] | 0.0265
CN(C)CC(C)(C)CNCc1ccc(-c2cccc3c(=O)cc(N4CCOCC4)oc23)c2sc3ccccc3c12 [4ay] | 0.122
O=c1cc(N2CCOCC2)oc2c(-c3ccc(CN4CCCC(F)(F)C4)c4c3sc3ccccc34)cccc12 [4az] | 2.02
O=c1cc(N2CCOCC2)oc2c(-c3ccc(CNCc4ccccc4)c4c3sc3ccccc34)cccc12 [4b] | 0.248
O=c1cc(N2CCOCC2)oc2c(-c3ccc(CNCCCN4CCCC4)c4c3sc3ccccc34)cccc12 [4ba] | 0.0173
CC(NCc1ccc(-c2cccc3c(=O)cc(N4CCOCC4)oc23)c2sc3ccccc3c12)c1nccs1 (stereo not drawn) [4bb] | 0.777
CN1CCCCC1CNCc1ccc(-c2cccc3c(=O)cc(N4CCOCC4)oc23)c2sc3ccccc3c12 (stereo not drawn) [4bc] | 0.0105
O=c1cc(N2CCOCC2)oc2c(-c3ccc(CNC4CCS(=O)(=O)C4)c4c3sc3ccccc34)cccc12 (stereo not drawn) [4bd] | 0.125
O=c1cc(N2CCOCC2)oc2c(-c3ccc(CNCc4cc[nH]n4)c4c3sc3ccccc34)cccc12 [4be] | 0.0917
COC[C@H]1CCCN1Cc1ccc(-c2cccc3c(=O)cc(N4CCOCC4)oc23)c2sc3ccccc3c12 [4bf] | 0.717
Cc1cc(NCc2ccc(-c3cccc4c(=O)cc(N5CCOCC5)oc34)c3sc4ccccc4c23)on1 [4bg] | 0.299
O=c1cc(N2CCOCC2)oc2c(-c3ccc(CNCc4ccco4)c4c3sc3ccccc34)cccc12 [4bh] | 0.222
Cc1n[nH]c(NCc2ccc(-c3cccc4c(=O)cc(N5CCOCC5)oc34)c3sc4ccccc4c23)n1 [4bi] | 0.0929
CC(CN(C)C)NCc1ccc(-c2cccc3c(=O)cc(N4CCOCC4)oc23)c2sc3ccccc3c12 (stereo not drawn) [4bk] | 0.032
Cn1nccc1CNCc1ccc(-c2cccc3c(=O)cc(N4CCOCC4)oc23)c2sc3ccccc3c12 [4bl] | 0.0462
N[C@@H]1CCCC[C@@H]1NCc1ccc(-c2cccc3c(=O)cc(N4CCOCC4)oc23)c2sc3ccccc3c12 [4bn] | 0.115
O=c1cc(N2CCOCC2)oc2c(-c3ccc(CN4CCCCO4)c4c3sc3ccccc34)cccc12 [4bo] | 2.07
O=c1cc(N2CCOCC2)oc2c(-c3ccc(CN4CC[C@@H](F)C4)c4c3sc3ccccc34)cccc12 [4bp] | 0.17
O=c1cc(N2CCOCC2)oc2c(-c3ccc(CN4CCSC4)c4c3sc3ccccc34)cccc12 [4bq] | 0.433
O=c1cc(N2CCOCC2)oc2c(-c3ccc(CN4CCC[C@@H]4CO)c4c3sc3ccccc34)cccc12 [4bt] | 0.174
CN(C)[C@H]1CCN(Cc2ccc(-c3cccc4c(=O)cc(N5CCOCC5)oc34)c3sc4ccccc4c23)C1 [4bu] | 0.00132
CN(C)[C@@H]1CCN(Cc2ccc(-c3cccc4c(=O)cc(N5CCOCC5)oc34)c3sc4ccccc4c23)C1 [4bv] | 0.00205
O=c1cc(N2CCOCC2)oc2c(-c3ccc(CN4CC[C@H](F)C4)c4c3sc3ccccc34)cccc12 [4bw] | 0.438
O=c1cc(N2CCOCC2)oc2c(-c3ccc(CN4CCC[C@H]4CO)c4c3sc3ccccc34)cccc12 [4by] | 0.0986

SMILES | IC50 [µM]
O=c1cc(N2CCOCC2)oc2c(-c3ccc(CN4CCSCC4)c4c3sc3ccccc34)cccc12 [4bz] | 0.257
O=c1cc(N2CCOCC2)oc2c(-c3ccc(CNCCO)c4c3sc3ccccc34)cccc12 [4c] | 0.0226
O=c1cc(N2CCOCC2)oc2c(-c3ccc(CN4CCC(F)(F)C4)c4c3sc3ccccc34)cccc12 [4ca] | 1.01
CC1CN(Cc2ccc(-c3cccc4c(=O)cc(N5CCOCC5)oc34)c3sc4ccccc4c23)CCN1C (stereo not drawn) [4cb] | 0.00374
CN(Cc1ccc(-c2cccc3c(=O)cc(N4CCOCC4)oc23)c2sc3ccccc3c12)Cc1ccnn1C [4cc] | 0.321
CN(Cc1ccc(-c2cccc3c(=O)cc(N4CCOCC4)oc23)c2sc3ccccc3c12)Cc1cncn1C [4cd] | 0.0684
Cn1cccc1CNCc1ccc(-c2cccc3c(=O)cc(N4CCOCC4)oc23)c2sc3ccccc3c12 [4ce] | 0.291
O=c1cc(N2CCOCC2)oc2c(-c3ccc(CNC4=NCCS4)c4c3sc3ccccc34)cccc12 [4cf] | 0.174
O=c1cc(N2CCOCC2)oc2c(-c3ccc(CNCc4ccncc4)c4c3sc3ccccc34)cccc12 [4cg] | 0.139
O=c1cc(N2CCOCC2)oc2c(-c3ccc(CNCc4cccnc4)c4c3sc3ccccc34)cccc12 [4ch] | 0.0985
O=c1cc(N2CCOCC2)oc2c(-c3ccc(CNCc4ccccn4)c4c3sc3ccccc34)cccc12 [4ci] | 0.177
O=c1cc(N2CCOCC2)oc2c(-c3ccc(CNCc4nccs4)c4c3sc3ccccc34)cccc12 [4cj] | 0.193
CN1CCCC(NCc2ccc(-c3cccc4c(=O)cc(N5CCOCC5)oc34)c3sc4ccccc4c23)C1 (stereo not drawn) [4ck] | 0.0161
CN1CCC(NCc2ccc(-c3cccc4c(=O)cc(N5CCOCC5)oc34)c3sc4ccccc4c23)CC1 [4cl] | 0.0472
N#Cc1cccn1NCc1ccc(-c2cccc3c(=O)cc(N4CCOCC4)oc23)c2sc3ccccc3c12 [4cm] | 0.956
CCN1CCCC1CNCc1ccc(-c2cccc3c(=O)cc(N4CCOCC4)oc23)c2sc3ccccc3c12 (stereo not drawn) [4cn] | 0.0573
O=c1cc(N2CCOCC2)oc2c(-c3ccc(CNCCN4CCCCC4)c4c3sc3ccccc34)cccc12 [4co] | 0.0625
O=c1cc(N2CCOCC2)oc2c(-c3ccc(CNn4cnnc4)c4c3sc3ccccc34)cccc12 [4cp] | 0.0946
NC1CCCN(Cc2ccc(-c3cccc4c(=O)cc(N5CCOCC5)oc34)c3sc4ccccc4c23)C1 (stereo not drawn) [4cq] | 0.0361
O=c1cc(N2CCOCC2)oc2c(-c3ccc(CN4CCCNCC4)c4c3sc3ccccc34)cccc12 [4cr] | 0.00667
O=c1cc(N2CCOCC2)oc2c(-c3ccc(CN4CCCCC4)c4c3sc3ccccc34)cccc12 [4cs] | 0.886
O=c1cc(N2CCOCC2)oc2c(-c3ccc(CNCCc4ccccc4)c4c3sc3ccccc34)cccc12 [4ct] | 0.53
CN(C)CCNCc1ccc(-c2cccc3c(=O)cc(N4CCOCC4)oc23)c2sc3ccccc3c12 [4d] | 0.0126
C=CCNCc1ccc(-c2cccc3c(=O)cc(N4CCOCC4)oc23)c2sc3ccccc3c12 [4i] | 0.883
